Here are results for 7 molecules from publication PMC6937553, “Structural and biochemical studies of the glucuronoyl esterase OtCE15A illuminate its interaction with lignocellulosic components” (The Journal of Biological Chemistry, 2019).

In assay [1] the target is T1, OtCE15A (Opitutus terrae, UniProt B1ZMF4).
T1 construct: gene Oter_0116; recombinant in E. coli BL21 (DE3), purified as in earlier work; catalytic Ser-267, His-408, Glu-290, Asp-356
Nature of the assay: X-ray crystal structure. It is filed as binding.

Assay [2] concerns the target T1, OtCE15A. Nature of the assay: continuous coupled esterase assay (K-URONIC kit). The assay is classed as biochemical. From the text: (§1) continuous coupled esterase assay (K-URONIC kit) on OtCE15A
The target of assay [3] is T2, OtCE15A (Opitutus terrae, UniProt B1ZMF4, L269Y).
T2 construct: gene Oter_0116; recombinant in E. coli BL21 (DE3), purified as in earlier work; catalytic Ser-267, His-408, Glu-290, Asp-356
T2 sequence (B1ZMF4 entry or part of it L269Y): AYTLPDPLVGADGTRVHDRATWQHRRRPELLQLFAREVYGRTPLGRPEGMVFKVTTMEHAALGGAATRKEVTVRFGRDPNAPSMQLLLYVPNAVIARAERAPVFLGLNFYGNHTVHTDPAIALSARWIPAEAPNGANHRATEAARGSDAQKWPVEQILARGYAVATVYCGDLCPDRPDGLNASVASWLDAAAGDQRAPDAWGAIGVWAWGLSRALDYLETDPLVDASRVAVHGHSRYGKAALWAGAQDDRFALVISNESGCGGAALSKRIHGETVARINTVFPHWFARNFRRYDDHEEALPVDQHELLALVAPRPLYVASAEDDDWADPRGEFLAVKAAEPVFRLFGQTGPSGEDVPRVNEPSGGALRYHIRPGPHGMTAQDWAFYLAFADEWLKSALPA
Nature of the assay: continuous coupled esterase assay (K-URONIC kit). The assay is classed as biochemical. To be noted: substrate inhibition constant.
Excerpt: as §1

Assay [4] deals with T1, OtCE15A. Nature of the assay: inhibition of BnzGlcA hydrolysis, coupled continuous assay (K-URONIC kit). The following applies: BnzGlcA as substrate (3.5 mM or 350 μM). It is filed as biochemical.
Assay [5] has as its target T1, OtCE15A. The assay is described as above. It is filed as biochemical. The following applies: BnzGlcA as substrate (3.5 mM or 350 μM). The source holds these as a separate data set.
The target in assay [6] is T1, OtCE15A. Described as above. The assay is classed as biochemical. To be noted: competitive; BnzGlcA as substrate.

T1 sequence (B1ZMF4 entry or part of it): as the sequence (B1ZMF4 entry or part of it L269Y) above, with Y237L counted along it

Turning to `O=C(O)[C@H]1OC(O)[C@H](O)[C@@H](O)[C@@H]1O` (some centres unmarked) [GlcA, glucuronate], on OtCE15A [1] (active site), the X-ray crystal structure result was “We determined the structure of the WT OtCE15A in complex with the product GlcA”.
In the case of `COC(=O)[C@H]1OC(O)[C@H](O)[C@@H](O)[C@H]1O` (some centres unmarked) [MeGalA, methyl galacturonoate], the Michaelis constant (Km) on OtCE15A [2] came out at 5.31 ± 0.51 mM.
Turning to `COC(=O)[C@H]1OC(O)[C@H](O)[C@@H](O)[C@@H]1O` (some centres unmarked) [MeGlcA, methyl glucuronoate], the Ksi on OtCE15A [3] stood at 34.5 ± 11.9 mM.
Regarding `CO[C@H]1[C@H](O)[C@@H](O)[C@@H](O[C@H]2[C@H](O[C@@H]3COC(O)[C@H](O)[C@H]3O)OC[C@@H](O[C@@H]3OC[C@@H](O)[C@H](O)[C@H]3O)[C@@H]2O)O[C@@H]1C(=O)O` (stereo partly drawn) [XUX, 2^3-(4-O-methyl-α-D-glucuronyl)-xylotriose], on OtCE15A [1] (active site, no variant named, taken as wild type), the X-ray crystal structure entry was “OtCE15A in complex with the glucuronoxylan oligosaccharide XUX (PDB code 6T0I)”.
As for `OC[C@H]1OC(O)[C@H](O)[C@@H](O)[C@@H]1O` (some centres unmarked) [glucose], the “% inhibition at up to 250 mM” value at OtCE15A [4] is recorded as less than 10%.
Regarding `OC1OC[C@@H](O[C@@H]2OC[C@@H](O)[C@H](O)[C@H]2O)[C@H](O)[C@H]1O` (some centres unmarked) [xylobiose], the “% reduction of activity at 100 mM” value at OtCE15A [5] is reported as ~ 50%. At OtCE15A [1] (active site and second site about 25 Å away, no variant named, taken as wild type), the X-ray crystal structure result is listed as “showing the two xylobiose-binding sites (PDB code 6SYU)”.
At OtCE15A [6], `OC1OC[C@@H](O)[C@H](O)[C@H]1O` (some centres unmarked) [xylose] returned a Ki of 48.1 mM.

One may read the Km as the substrate concentration at which the rate is half of its maximum. As a reminder, the % inhibition is the share of the control response that was lost under treatment. The low end stands for a weak effect, the high end for a strong effect. A word on the Ki: it is a measure of affinity in units of concentration, obtained from inhibition or displacement. Low values mean tighter binding, high ones weaker binding.
